Data on 37 compounds can be found in patent US9150546B2, “Triazine derivative and pharmaceutical composition comprising the same” (SHIONOGI & CO., LTD., priority 2009, dated 2015).

Structures are written as SMILES.

The target in the experiment is human P2X3 receptor (Homo sapiens (Human), UniProt P56373). Put plainly: P2X3 receptor inhibition, ATP-evoked Fluo-3 fluorescence (FDSS 3000). In kind it is cell-based. The following applies: C6BU-1 cell transfected with human P2X3 receptor gene.
Sequence of human P2X3 receptor (P56373 whole entry): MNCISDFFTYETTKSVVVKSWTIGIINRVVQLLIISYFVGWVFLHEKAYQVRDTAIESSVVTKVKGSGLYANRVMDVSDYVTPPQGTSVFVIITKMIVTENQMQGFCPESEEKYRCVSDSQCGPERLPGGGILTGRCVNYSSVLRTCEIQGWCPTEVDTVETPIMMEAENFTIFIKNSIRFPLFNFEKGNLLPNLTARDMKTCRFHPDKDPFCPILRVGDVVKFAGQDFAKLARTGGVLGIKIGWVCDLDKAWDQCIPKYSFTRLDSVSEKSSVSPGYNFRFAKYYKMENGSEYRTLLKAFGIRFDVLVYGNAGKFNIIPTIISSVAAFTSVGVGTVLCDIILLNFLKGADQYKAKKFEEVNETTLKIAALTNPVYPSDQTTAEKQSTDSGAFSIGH
In general, IC50 refers to the concentration at which inhibition is half-maximal. With `O=c1nc(Nc2ccc(-c3ccon3)cc2)n(Cc2ccc(Cl)cc2)c(=O)n1CCN1CCOCC1` [I-287], the IC50 amounted to 222 nM. In other words, the sub-micromolar range.

The compound `CC(C)Oc1ccc(/N=c2\[nH]c(=O)n(C[C@@H](C)C(=O)O)c(=O)n2Cc2ccc(Cl)cc2)cc1` [I-483] yielded an IC50 of 100 nM.

In the case of `COC(=O)c1ccc(Cn2c(=O)[nH]/c(=N\c3ccc(OC(C)C)c(F)c3)n(Cc3ccc(Cl)cc3)c2=O)cc1` [I-444], the IC50 stood at 17 nM. This IC50 lies about 5.9-fold lower than the previous one.

`O=c1nc(Nc2ccc(OC(F)F)cc2)n(Cc2ccc(Cl)cc2)c(=O)n1CCCO` [I-360]: the IC50 was determined as 148 nM. Against the preceding compound, the IC50 is about 8.7-fold higher.

Take `CC(C)Oc1ccc(Nc2nc(=O)n(CC3CC3)c(=O)n2Cc2ccc(Cl)cc2)cc1F` [I-271]: the IC50 was determined as 32 nM. This IC50 lies about 4.6-fold lower than the previous one.

Compound `COC(=O)[C@@H](C)Cn1c(=O)[nH]/c(=N\c2ccc(OC(C)C)c(F)c2)n(Cc2ccc(C)cc2)c1=O` [I-515] had an IC50 of 6 nM.

With `O=c1nc(Nc2cccc(C(F)(F)F)c2)n(Cc2ccc(Cl)cc2)c(=O)n1CCCO` [I-357], half-maximal inhibition (IC50) required 47 nM.

Regarding `CC(C)Oc1ccc(/N=c2\[nH]c(=O)n(CCC(C)(C)C(=O)O)c(=O)n2Cc2ccc(Cl)cc2)cc1Cl` [I-421], the IC50 is 19 nM.

As to `COC(=O)Cn1c(=O)[nH]/c(=N\c2ccc(OC(C)C)c(F)c2)n(Cc2ccc(C)cc2)c1=O` [I-410], 44 nM corresponded to half-maximal inhibition (IC50).

Regarding `CC(C)Oc1ccc(/N=c2\[nH]c(=O)n(CC(=O)NCCO)c(=O)n2Cc2ccc(Cl)cc2)cc1Cl` [I-437], 6 nM corresponded to half-maximal inhibition (IC50).

Turning to `CCOc1ccc(Nc2nc(=O)n(CCO)c(=O)n2Cc2ccc(Cl)cc2)cc1` [I-307], the IC50 worked out at 250 nM.

In the case of `CCOC(=O)CCCn1c(=O)[nH]/c(=N\c2ccc(OC(C)C)c(Cl)c2)n(Cc2ccc(Cl)cc2)c1=O` [I-498], half-maximal inhibition (IC50) was put at 9 nM. Against the preceding compound, the IC50 is about 28-fold lower.

Compound `CC(C)n1c(=O)nc(Nc2ccc(C(=O)Nc3ccccc3)cc2)n(Cc2ccc(Cl)cc2)c1=O` [I-266] had a half-maximal inhibitory concentration (IC50) of 861 nM.

On to `Cc1cc2cc(/N=c3\[nH]c(=O)n(C[C@H](C)C(=O)O)c(=O)n3Cc3ccc(Cl)cc3)ccc2o1` [I-540], for which the IC50 stood at 27 nM.

Compound `CC(C)(Cn1c(=O)[nH]/c(=N\c2cccc(Cl)c2)n(Cc2ccc(Cl)cc2)c1=O)C(=O)O` [I-468] yielded an IC50 of 137 nM.

Consider `CC(C)Oc1ccc(/N=c2\[nH]c(=O)n([C@@H](C)CC(=O)O)c(=O)n2Cc2ccc(Cl)cc2)cc1Cl` [I-526], for which inhibition was half-maximal at 24 nM (IC50). This IC50 is about 5.7-fold lower than that of the compound before.

As to `COC(=O)C(C)(C)Cn1c(=O)[nH]/c(=N\c2ccc3oc(C)nc3c2)n(Cc2ccc(Cl)cc2)c1=O` [I-488], the IC50 turned out to be 124 nM.

The compound `Cc1ccc(Cn2c(=O)n(CC(C)(C)C(=O)O)c(=O)[nH]/c2=N\c2ccc(OC(C)C)c(F)c2)cc1` [I-405] showed an IC50 of 32 nM.

Consider `CC(C)Oc1ccc(Nc2nc(=O)n(CCOC3CCCCO3)c(=O)n2Cc2ccc(Cl)cc2)cc1Cl` (stereo not shown) [I-350], for which the IC50 is 10 nM. Against the preceding compound, the IC50 is about 3.2-fold lower.

Consider `CC(C)n1c(=O)nc(Nc2cccc(C(F)(F)F)c2)n(Cc2ccc(Cl)cn2)c1=O` [I-162], for which the midpoint of inhibition, the IC50, lay at 379 nM. Against the preceding compound, the IC50 is about 38-fold higher.

Regarding `CC(C)Oc1ccc(Nc2nc(=O)n(C(CO)CO)c(=O)n2Cc2ccc(Cl)cc2)cc1F` [I-286], the IC50 stood at 277 nM.

With `CCOc1ccc(Nc2nc(=O)n(C[C@H](C)C(=O)OC)c(=O)n2Cc2ccc(Cl)cc2)cc1C` [I-532], the IC50 was determined as 29 nM.

`COC(=O)C(C)(C)Cn1c(=O)[nH]/c(=N\c2ccc3oc(C)cc3c2)n(Cc2ccc(Cl)cc2)c1=O` [I-489]: the IC50 amounted to 10 nM. This IC50 lies about 2.9-fold lower than the previous one.

Turning to `COC(=O)C(C)(C)Cn1c(=O)[nH]/c(=N\c2ccc(OC(C)C)c(Cl)c2)n(Cc2ccc(Cl)cc2)c1=O` [I-399], the IC50 is 8 nM.

Compound `CCOc1ccc(/N=c2\[nH]c(=O)n(C[C@H](C)C(=O)O)c(=O)n2Cc2ccc(Cl)cc2)cc1Cl` [I-539] had an IC50 of 7 nM.

`COC(=O)CNC(=O)Cn1c(=O)[nH]/c(=N\c2ccc(OC(C)C)c(F)c2)n(Cc2ccc(Cl)cc2)c1=O` [I-397] came in with an IC50 of 19 nM.

Consider `COC(=O)C(C)(C)Cn1c(=O)[nH]/c(=N\c2cccc(OC(F)F)c2)n(Cc2ccc(Cl)cc2)c1=O` [I-443], for which half-maximal inhibition (IC50) was put at 207 nM.

As to `CCOc1ccc(/N=c2\[nH]c(=O)n(CC(C)(C)C(=O)O)c(=O)n2Cc2ccc(Cl)cc2)cc1` [I-542], the IC50 came to 96 nM.

The compound `O=c1nc(Nc2ccc(C(F)(F)F)c(F)c2)n(Cc2ccc(Cl)cc2)c(=O)n1CCO` [I-315] returned an IC50 of 183 nM.

In turn, `O=c1nc(Nc2ccc(OC3CCCC3)cc2)n(Cc2ccc(Cl)cc2)c(=O)n1CCO` [I-322] had an IC50 of 112 nM. This IC50 is about 1.6-fold lower than that of the compound before.

`CC(C)Oc1ccc(Nc2nc(=O)n(C(C)C)c(=O)n2Cc2ccc(Cl)nc2)cc1Cl` [I-235]: the IC50 came to 985 nM.

Consider `O=c1nc(Nc2ccc(OC(F)F)cc2)n(Cc2ccc(Cl)cc2)c(=O)n1CCO` [I-329], for which 266 nM corresponded to half-maximal inhibition (IC50).

Compound `COC(=O)C(C)n1c(=O)[nH]/c(=N\c2ccc(OC(C)C)c(F)c2)n(Cc2ccc(Cl)cc2)c1=O` (stereo not shown) [I-474] registered an IC50 of 14 nM.

The compound `CC(C)n1c(=O)nc(Nc2ccc(C(=O)NC3CC3)cc2)n(Cc2ccc(Cl)cc2)c1=O` [I-257] gave a half-maximal inhibitory concentration (IC50) of 682 nM.

`Cc1cc(/N=c2\[nH]c(=O)n(CC(C)(C)C(=O)O)c(=O)n2Cc2ccc(Cl)cc2)ccc1OC(C)C` [I-432] yielded an IC50 of 26 nM. This IC50 lies about 26-fold lower than the previous one.

On to `CCOc1ccc(Nc2nc(=O)n(C[C@H](C)C(=O)OC)c(=O)n2Cc2ccc(Cl)cc2)cc1` [I-530], for which the IC50 was found to be 34 nM.

Turning to `CC(C)Cn1ccc2cc(/N=c3\[nH]c(=O)n(CC(C)(C)C(=O)O)c(=O)n3Cc3ccc(Cl)cc3)ccc21` [I-508], half-maximal inhibition (IC50) required 511 nM.
